The assay concerns the target human APJ receptor (Homo sapiens (Human), UniProt P35414). In words: [35S]GTPγS binding assay on membranes from CHO cells stably expressing human APJ receptor. It is filed as biochemical. As to conditions: [35S]GTPγS SPA, read-out: Activity hAPJ SPA EC50 IP. The method, then: [^35S]GTPγS Binding The human APJ receptor was cloned by polymerase chain reaction and the gene encoding the receptor was subcloned in pFLAG-CMV™-3 expression vector (Sigma, Saint Louis, Mo. USA) in-house at Amgen. A GTPγS binding assay was performed on membranes prepared from CHO cells stably expressing human APJ receptor. The optimum experimental conditions for the concentrations of GDP, MgCl2, and NaCl in the assay buffer were initially determined. […] Incubation was at RT for 90 min and the microplate was read using a ViewLux™ ultra HTS Microplate Imager (PerkinElmer, Inc.). All the results presented are means of several independent experiments and analyzed by non-linear regression methods using the commercially available program Prism (GraphPad, San Diego, Calif.) providing the EC50 values detailed in Table 25.
For orientation: GTPγS resists hydrolysis and so accumulates on activated G proteins.
Sequence of human APJ receptor (P35414 whole entry): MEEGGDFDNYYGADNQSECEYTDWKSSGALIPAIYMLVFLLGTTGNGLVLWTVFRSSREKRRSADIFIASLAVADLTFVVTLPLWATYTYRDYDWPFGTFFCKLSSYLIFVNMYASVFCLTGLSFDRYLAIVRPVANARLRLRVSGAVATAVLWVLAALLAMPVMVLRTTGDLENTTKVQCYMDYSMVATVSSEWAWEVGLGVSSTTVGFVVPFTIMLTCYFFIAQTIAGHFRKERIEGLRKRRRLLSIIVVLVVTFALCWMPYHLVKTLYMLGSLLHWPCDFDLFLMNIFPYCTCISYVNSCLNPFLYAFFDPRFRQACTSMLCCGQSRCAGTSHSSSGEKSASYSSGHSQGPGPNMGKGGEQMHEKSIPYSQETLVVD
Consider `COCC(COC)n1c(NS(=O)(=O)[C@@H](C)[C@H](OC)c2ncc(Cl)cn2)nnc1[C@H]1C[C@H](CO)C1` (single isomer, unassigned) [Example 131.0, (1R,2S)-1-(5-chloropyrimidin-2-yl)-N-(4-(1,3-dimethoxypropan-2-yl)-5-((1r,3S)-3-(hydroxymethyl)cyclobutyl)-4H-1,2,4-triazol-3-yl)-1-methoxypropane-2-sulfonamide or (1R,2S)-1-(5-chloropyrimidin-2-yl)-N-(4-(1,3-dimethoxypropan-2-yl)-5-((1s,3R)-3-(hydroxymethyl)cyclobutyl)-4H-1,2,4-triazol-3-yl)-1-methoxypropane-2-sulfonamide], for which the EC50 was found to be 0.11 µM.

As to `COCC1(n2c(NS(=O)(=O)[C@@H](C)[C@H](OC)c3ncc(Cl)cn3)nnc2[C@H]2C[C@H](CO)C2)CC1` (single isomer, unassigned) [Example 132.0, (1R,2S)-1-(5-chloro-2-pyrimidinyl)-N-(5-(trans-3-(hydroxymethyl)cyclobutyl)-4-(1-(methoxymethyl)cyclopropyl)-4H-1,2,4-triazol-3-yl)-1-methoxy-2-propanesulfonamide or (1R,2S)-1-(5-chloro-2-pyrimidinyl)-N-(5-(cis-3-(hydroxymethyl)cyclobutyl)-4-(1-(methoxymethyl)cyclopropyl)-4H-1,2,4-triazol-3-yl)-1-methoxy-2-propanesulfonamide], the EC50 is 1.27 µM.

In the case of `COCC1(n2c(NS(=O)(=O)[C@@H](C)[C@H](OC)c3ncc(Cl)cn3)nnc2[C@H]2C[C@H](CO)C2)CC1` (single isomer, unassigned) [Example 133.0, (1R,2S)-1-(5-chloro-2-pyriminidyl)-N-(5-(trans-3-(hydroxymethyl)cyclobutyl)-4-(1-(methoxymethyl)cyclopropyl)-4H-1,2,4-triazol-3-yl)-1-methoxy-2-propanesulfonamide or (1R,2S)-1-(5-chloro-2-pyrimidinyl)-N-(5-(cis-3-(hydroxymethyl)cyclobutyl)-4-(1-(methoxymethyl)cyclopropyl)-4H-1,2,4-triazol-3-yl)-1-methoxy-2-propanesulfonamide], the EC50 amounted to 0.12 µM.

Regarding `CO[C@H](c1ncc(Cl)cn1)[C@H](C)S(=O)(=O)Nc1nnc([C@H]2C[C@H](CO)C2)n1C1CC1` (single isomer, unassigned) [Example 134.0, (1R,2S)-1-(5-chloro-2-pyrimidinyl)-N-(4-cyclopropyl-5-(trans-3-(hydroxymethyl)cyclobutyl)-4H-1,2,4-triazol-3-yl)-1-methoxy-2-propanesulfonamide or (1R,2S)-1-(5-chloro-2-pyrimidinyl)-N-(4-cyclopropyl-5-(cis-3-(hydroxymethyl)cyclobutyl)-4H-1,2,4-triazol-3-yl)-1-methoxy-2-propanesulfonamide], the EC50 was 1.33 µM.

`CO[C@H](c1ncc(Cl)cn1)[C@H](C)S(=O)(=O)Nc1nnc([C@H]2C[C@H](CO)C2)n1C1CC1` (single isomer, unassigned) [Example 135.0, (1R,2S)-1-(5-chloro-2-pyrimidinyl)-N-(4-cyclopropyl-5-(trans-3-(hydroxymethyl)cyclobutyl)-4H-1,2,4-triazol-3-yl)-1-methoxy-2-propanesulfonamide or (1R,2S)-1-(5-chloro-2-pyrimidinyl)-N-(4-cyclopropyl-5-(cis-3-(hydroxymethyl)cyclobutyl)-4H-1,2,4-triazol-3-yl)-1-methoxy-2-propanesulfonamide]: the EC50 was 1.81 µM.

With `CO[C@H](c1ncc(Cl)cn1)[C@H](C)S(=O)(=O)Nc1nnc([C@H]2C[C@H](CO)C2)n1C(C)C` (single isomer, unassigned) [Example 136.0, (1R,2S)-1-(5-chloro-2-pyrimidinyl)-N-(5-trans-3-(hydroxymethyl)cyclobutyl)-4-(2-propanyl)-4H-1,2,4-triazol-3-yl)-1-methoxy-2-propanesulfonamide or (1R,2S)-1-(5-chloro-2-pyrimidinyl)-N-(5-(cis-3-(hydroxymethyl)cyclobutyl)-4-(2-propanyl)-4H-1,2,4-triazol-3-yl)-1-methoxy-2-propanesulfonamide], the EC50 amounted to 3.2 µM.

As usually defined, the EC50 is the concentration giving half of the maximal effect.

Values taken from patent US11020395B2, “Cycloalkyl substituted triazole compounds as agonists of the APJ receptor” (AMGEN INC., priority 2016, dated 2021).
